The values that follow come from US6599883B1, “Nasal delivery of xylitol” (Nastech Pharmaceutical Company, Inc., priority 1998, dated 2003).

Series [1] is classed as physicochemical. How it is done:
A composition is prepared for a dilute bathing formulation of xylitol for nasal delivery. The concentration of xylitol in the solution may be 10%-60% by weight/volume. This corresponds to 10-60 grams of xylitol per 100 ml of solution. xylitol is soluble in solution up to 64.2 grams per 100 ml of solution.

In a further series the test system is Streptococcus pneumonia. Particulars: during its logarithmic growth phase; cited from earlier work.

Consider `OC[C@@H](O)[C@H](O)[C@@H](O)CO` [xylitol], for which the soluble in solution result in series [1] is “up to 64.2 grams per 100 ml of solution”. Besides, in the series with Streptococcus pneumonia, the “growth of Streptococcus pneumonia in vitro” value is on record as “inhibits the growth”.
